Measured values from the supplement of paper PMC10307832.

Assays:
Experiment in all cases: relative viability (nuclei count vs DMSO), 5 days (fraction); higher = more cells survive
TPCA-1 + Linsitinib = compound: C1=CC(=CC=C1C2=CC(=C(S2)NC(=O)N)C(=O)N)F [TPCA-1] + C[C@]1(O)C[C@@H](c2nc(-c3ccc4ccc(-c5ccccc5)nc4c3)c3c(N)nccn32)C1 [Linsitinib] (partner 1 µM)
In short: (§1)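 Lung cancer cell lines were pin-tool dosed in 1536-well plates on the day after seeding, with either a lone drug or a fixed anchor-drug dose plus five library-drug doses (not always all listed) in √10 steps. Nuclei were counted on 4× images after 5 days. Relative viability is the ratio of treated-well to vehicle-well nuclei counts, with each value a median of duplicate plates.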

[1] = compound: C[C@]12O[C@H](C[C@]1(O)CO)n1c3ccccc3c3c4c(c5c6ccccc6n2c5c31)CNC4=O [Lestaurtinib] + N=C(N)NC(=N)NCCc1ccccc1 [Phenformin] (partner 250 µM)
In short: as §1

[2] = compound: C1/C(=C\C2=CC=CS2)/C(=O)/C(=C/C3=CC=CS3)/C1 + Cc1cc(Nc2cc(N3CCN(C)CC3)nc(Sc3ccc(NC(=O)C4CC4)cc3)n2)n[nH]1 [Tozasertib] (partner 0.1 µM)
In short: as §1

[3] = compound: C1/C(=C\C2=CC=CS2)/C(=O)/C(=C/C3=CC=CS3)/C1 + O=C(CCCCCCC(=O)Nc1ccccc1)NO [Vorinostat] (partner 1 µM)
In short: as §1

Row | Cell Line | relative viability (TPCA-1 + Linsitinib; first compound 0.04 µM) | relative viability (TPCA-1 + Linsitinib; first compound 0.1265 µM) | relative viability (TPCA-1 + Linsitinib; first compound 0.4 µM) | relative viability (TPCA-1 + Linsitinib; first compound 1.265 µM) | relative viability (TPCA-1 + Linsitinib; first compound 4 µM) | relative viability ([1]; first compound 0.005 µM) | relative viability ([1]; first compound 0.01581 µM) | relative viability ([1]; first compound 0.05 µM) | relative viability ([1]; first compound 0.1581 µM) | relative viability ([1]; first compound 0.5 µM) | relative viability ([2]; first compound 0.2 µM) | relative viability ([2]; first compound 0.6325 µM) | relative viability ([2]; first compound 2 µM) | relative viability ([2]; first compound 6.325 µM) | relative viability ([2]; first compound 20 µM) | relative viability ([3]; first compound 0.2 µM) | relative viability ([3]; first compound 0.6325 µM) | relative viability ([3]; first compound 2 µM) | relative viability ([3]; first compound 6.325 µM) | relative viability ([3]; first compound 20 µM)
1 | LK-2 | 0.349 | 0.332 | 0.507 | 0.52 | 0.196 | 0.542 | 0.738 | 0.275 | 0.233 | 0.217 | 0.157 | 0.155 | 0.196 | 0.168 | 0.175 | 0.255 | 0.337 | 0.432 | 0.324 | 0.32
2 | LOU-NH91 | 1.02 | 0.841 | 1 | 0.993 | 0.859 | 0.677 | 0.722 | 0.647 | 0.506 | 0.362 | 0.755 | 0.705 | 0.657 | 0.604 | 0.596 | 1.03 | 0.934 | 1.01 | 0.782 | 0.973
3 | NCI-H522 | – | – | – | – | – | 0.722 | 0.614 | 0.634 | 0.552 | 0.525 | 0.6 | 0.506 | 0.523 | 0.549 | 0.583 | 0.967 | 0.911 | 0.893 | 1.01 | 0.909
4 | NCI-H1299 | 1.13 | 0.904 | 0.942 | 0.777 | 1.01 | – | – | – | – | – | – | – | – | – | – | – | – | – | – | –
5 | NCI-H1563 | 1.2 | 1.23 | 1.17 | 1.12 | 1.16 | 0.625 | 0.711 | 0.677 | 0.577 | 0.58 | – | – | – | – | – | – | – | – | – | –
6 | NCI-H1623 | – | – | – | – | – | 0.609 | 0.593 | 0.557 | 0.525 | 0.51 | 0.479 | 0.437 | 0.423 | 0.394 | 0.489 | – | – | – | – | –
7 | NCI-H1648 | – | – | – | – | – | – | – | – | – | – | 0.598 | 0.559 | 0.467 | – | 0.4 | 0.435 | 0.408 | 0.603 | 0.366 | 0.297
8 | NCI-H1650 | – | – | – | – | – | 0.419 | 0.511 | 0.424 | 0.373 | 0.151 | 0.492 | 0.445 | 0.395 | 0.435 | 0.343 | 0.49 | 0.44 | 0.796 | 0.56 | 0.498
9 | NCI-H1703 | 1.01 | 0.627 | 0.947 | 0.546 | 0.308 | – | – | – | – | – | – | – | – | – | – | – | – | – | – | –
10 | NCI-H1792 | 0.574 | 0.467 | 0.561 | 0.47 | 0.283 | – | 0.423 | 0.3 | 0.179 | 0.178 | – | – | – | – | – | – | – | – | – | –
11 | NCI-H2170 | – | – | – | – | – | 0.41 | 0.424 | 0.42 | 0.32 | 0.244 | 0.689 | 0.716 | 0.73 | 0.563 | 0.728 | 0.898 | 0.814 | 0.787 | 0.728 | 0.766
12 | NCI-H2342 | – | – | – | – | – | 0.545 | 0.656 | 0.551 | 0.652 | 0.613 | 0.521 | 0.567 | 0.561 | 0.443 | 0.459 | 0.667 | 0.997 | 0.85 | 0.757 | 0.683
13 | SW 900 | – | – | – | – | – | 0.69 | 0.715 | 0.63 | 0.803 | 0.4 | 0.514 | 0.567 | 0.558 | 0.618 | 0.584 | 0.525 | 0.485 | 0.569 | 0.59 | 0.558
